Patent US7786160B2, “Combination of selected analgesics and COX-II inhibitors” (Gruenenthal GmbH, priority 2002, dated 2010)
Like-named read-outs stand apart in the source and are kept apart here.

Experiments:
Assay type in all cases: in vivo
rat [1] = experiment: Randall-Selitto test (yeast oedema, model for inflammatory pain); conditions: for effect of compound A with COX-II inhibitor (Rofecoxib or Celecoxib) compared with additive (in words): staggered administration, Rofecoxib or Celecoxib 1 hour prior to compound A
Protocol: The Randell-Selitto test of Randall and Selitto (Arch. Int. Pharmacodyn., 1957, 111: 409 to 419) is a model for inflammatory pain.
By means of the injection of 0.1 ml 20% baking yeast suspension ventrally into a hind paw an oedema was induced, on which pain was generated 4 hours later by continuously increasing pressure with a stamp (2 mm tip diameter). The measured value to be determined and at the same time also the end point of the pain test was the pressure at which the vocalisation reaction of the animal occurred. The percentage maximum possible effect (%MPE) was calculated. The maximum pressure of the stamp was 250 g. The group size was n=10.
The theoretical additive value was calculated by adding the mean values from the individual tests of the test substance and COX-II inhibitor. The corresponding standard deviation of the theoretical additive mean value was calculated from the addition of the variances.

mouse = experiment: Formalin test (chronic pain component), mouse; conditions: peroral, substance alone
Protocol: (§1) The formalin test (Dubuisson, D. and Dennis, S. G., 1977, Pain, 4, 161 to 174) is a model for acute and chronic pain. In the tests presented here, the chronic pain component was evaluated.
(§2) By means of a single formalin injection into the dorsal side of a hind paw of test animals that were able to move freely, a biphasic nociceptive reaction, which was detected by the observation of three clearly distinguishable behavioural patterns, was induced.
(§3) Formalin having a volume of 20 μl and a concentration of 1% was administered subcutaneously into the dorsal side of the right hind paw of each animal. The specific behavioural changes, such as raising and shaking of the paw, weight loss in the animal and biting and licking reactions, were continuously observed and registered for up to 60 min after the formalin administration. The behavioural changes were weighted differently (a score of 0 to 3) and a pain rate (PR) calculated having the general formula: PR=[(T0×0)+(T1×1)+(T2×2)+(T3×3)/180.
(§4) The group contained 10 animals (n=10).

rat [2] = experiment: Formalin test (chronic pain component), rat; conditions: peroral, substance alone
Protocol: as §1, §2, §3, §4

rat [3] = experiment: Writhing test (acetic acid, model for acute pain); conditions: peroral, substance alone
Protocol: The writhing test is a modification of the method of Schmauss C and Yaksh TL, J Pharmacol Exp Ther 228: 1-12 (1984) and a model for acute pain.
9% acetic acid was administered to the animals intraperitoneally as a pain stimulus. This was administered 30 min (test substance perorally) or 10 min (test substance intravenously) after the administration of the test substance. The pain-induced writhing reactions were recorded 10 to 35 min after the administration of acetic acid. […] Pain expressions, such as a slanting body angle when the animal stands upright, frequent cleaning of the belly or arching of the back without stretching of the rear limbs, were thus included in the evaluation.
The animals that had been treated with the substance were compared with a control group, which had been given physiological saline solution. The group contained 10 animals (n=10).

[4] = All listed animal models together (acute, chronic and inflammatory pain); conditions: simultaneous administration with a selective COX-II inhibitor (Rofecoxib or Celecoxib), chronic and inflammatory pain (Table 1)
Protocol: 1, 4, 2 and 2 (Randall-Selitto test). In these tests, either Rofecoxib or Celecoxib was administered 1 hour prior to the administration of the selected analgesic (compound A). In a few tests, Rofecoxib was administered as the final preparation Vioxx and Celecoxib as Celebrex.

[5] = read-out: ED50 [mg/kg] of COX-II inhibitor
[6] = read-out: ED50 [mg/kg] of compound A

COc1cccc([C@@]2(O)C[C@H](O)CC[C@@H]2CN(C)C)c1.Cl (racemic) [Compound 4]
% effect of compound A (rat [1]; Table 2, staggered series, compound A alone 68.1 mg/kg peroral, 15-75 min after administration of compound No. 4): 85.4%
% effect of compound A (rat [1]; Table 2, staggered series, compound A alone 68.1 mg/kg peroral, 75-90 min after administration of compound No. 4): 45.2%
effect of compound A with COX-II inhibitor (Rofecoxib or Celecoxib) compared with additive (in words) (rat [1]): clear effect-increasing supra-additive effect

Cc1ccc(-c2cc(C(F)(F)F)nn2-c2ccc(S(N)(=O)=O)cc2)cc1 [Compound 101, Celecoxib, reference compound]
ED50 (mouse; [5]): 38.5 mg/kg
% effect of COX-II inhibitor (rat [1]; fixed dose combination (not staggered), COX-II inhibitor alone 215 mg/kg peroral, %MPE): 9.8%
ED50 (rat [2]; [5]): 154 mg/kg

CC[C@@H](c1cccc(O)c1)[C@@H](C)CN(C)C.Cl [Compound 2, (1R,2R)-3-(3-dimethylamino-1-ethyl-2-methyl-propyl)-phenol; hydrochloride]
ED50 (mouse; [6]): 34.6 mg/kg
ED50 (rat [3]; [6]): 33 mg/kg
% effect of compound A (rat [1]; Table 1, staggered administration series, compound A alone 31 mg/kg peroral): 20.0%
% effect of compound A (rat [1]; Table 1, staggered administration series, compound A alone 46 mg/kg peroral): 32.6%
% effect of compound A (rat [1]; fixed dose combination (not staggered), compound A alone 31 mg/kg peroral, %MPE): 13.3%
effect of compound A with COX-II inhibitor (Rofecoxib or Celecoxib) compared with additive (in words) (rat [1]): clear effect-increasing supra-additive effect
ED50 (rat [2]; [6]): 18 mg/kg

CS(=O)(=O)c1ccc(C2=C(c3ccccc3)C(=O)OC2)cc1 [Compound 102, Rofecoxib, reference compound]
ED50 (rat [3]; [5]): 60.1 mg/kg

CC[C@H](c1cccc(O)c1)[C@H](C)CN(C)C.Cl [Compound 3, (1S,2S)-3-(3-dimethylamino-1-ethyl-2-methyl-propyl)-phenol; hydrochloride]
% effect of compound A (rat [1]; Table 4, staggered series, compound A alone 21.5 mg/kg peroral): 22.8%

CN(C)C[C@@H]1CCCC[C@H]1c1cccc(O)c1.Cl [Compound 1, (1R,2R)-3-(2-dimethylaminomethyl-cyclohexyl)-phenol; hydrochloride]
effect in comparison to the theoretically calculated purely additive effect [4]: intensification of effect
% effect of compound A (rat [1]; Table 3, staggered series, compound A alone 46.4 mg/kg peroral): 26.2%
effect of compound A with COX-II inhibitor (Rofecoxib or Celecoxib) compared with additive (in words) (rat [1]): clear effect-increasing supra-additive effect
